Experimental data as given in paper PMC4865820, “Branched Peptide, B2088, Disrupts the Supramolecular Organization of Lipopolysaccharides and Sensitizes the Gram-negative Bacteria” (Scientific Reports, 2016).
Positions of bridges follow the written chain, without caps; N, C: chain ends. Non-standard residues stand in square brackets, D forms with d. Residues, ends and D or L forms follow the SMILES beside them. Chains are numbered I, II in the order given. Bip = N[C@@H](Cc1ccc(-c2ccccc2)cc1)C(=O)O

Columns and labels:
[1] = tested on: LPS (E. coli serotype 055:B5); experiment: BODIPY TR cadaverine (BC) displacement assay with LPS; assay type: binding; details: no unit in table; ED50 values in μM; 5 mM HEPES pH 7.4; duplicates; read-out: BC50 (LPS binding)
Description: To investigate the interaction of B2088 with LPS, we performed the BODIPY TR cadaverine (BC) displacement assay reported by Wood et al.[22]. The probe binds to the lipid A part of the LPS with moderate affinity and can be displaced by putative LPS-binding molecules. The method was used to probe the affinity of polycationic molecules and LPS binding proteins. First, we determined the affinity of polymyxin B (PMB), a lipopeptide cyclic antibiotic which has a high affinity for LPS. […] Figure 1a,b show the concentration-dependent displacement of LPS/lipid A-bound BC upon addition of B2088. […] To confirm the importance of branching, we determined the BC50 for a linear retrodimer having the amino acid sequence, […] (Fig. 1d). The determined value was 2-fold higher (3.9 ± 0.1 μM) than that of B2088, confirming a weaker affinity of the linear peptide.
The BC displacement assay was used to determine the ability of each peptide to bind to LPS. The florescent probe, BODIPY TR cadaverine (BC) was purchased from Molecular Probes/ Invitrogen (USA). A stock solution containing 1 mg/ml of LPS (E. coli serotype 055:B5) was prepared in dimethyl sulfoxide (DMSO) and another stock solution containing 1 mg/ml of BC dye was prepared in 5 mM HEPES buffer (pH 7.4). The optimum saturation concentration of BC:LPS ratio was standardized following the protocol provided by Wood et al. (22). From the BC stock, 240 μl was mixed with 500 μl from the LPS stock solution in 5 mM HEPES buffer (pH 7.4) to prepare 20 ml of BC:LPS mixture. Two-fold serial dilutions of each peptide in 5 mM HEPES buffer (pH 7.4) was prepared from their 1 mg/ml stock solutions to obtain a final range of 0.02–25.6 μM. The BC:LPS mixture was added to 100 μl of each peptide congener in a 1:1 ratio in each well of a 96-well black Costar™ polystyrene microtitre plate (Corning Incorporated, NY, USA). The maximum fluorescence intensity (Fmax) was determined using a mixture containing 100 μl PMB (50 μg/ml) and 100 μl BC:LPS solution, as PMB is considered the ‘gold standard’ for LPS-sequestering agents. The minimum fluorescence intensity (F0) was measured using 200 μl of BC:LPS mixture to determine the background noise for this experiment. Fluorescence measurements for each peptide (F) were determined using a microplate reader (Model: TECAN Infinite 200, Austria) with excitation and emission wavelengths set at 580 nm and 620 nm respectively. The percentage of BC displacement was then calculated using the formula: […]
The experiments were performed in duplicates and the effective concentration required for 50% displacement of BC dye (ED50) from LPS with respect to PMB was determined by curve fitting using Graphpad Prism (CA, USA). A higher ED50 value for the peptide indicates a lower affinity for LPS.

[2] = tested on: P. aeruginosa ATCC 27853; experiment: microbe, parasite or virus in culture; assay type: cell-based; details: ATCC 27853, 24 h
Description: (§1) MIC of each peptide was determined using the microdilution method in a 96 well microtitre plates (SPL Life Sciences Co., Ltd, Korea). Two-fold serial dilutions of each peptide in Mueller-Hinton Broth (MHB) was prepared from a 1 mg/ml stock solution of the peptide in the same broth, to obtain a final concentration in the range of 0.0976–50 μg/ml in each well. Bacterial suspensions (P. aeruginosa ATCC 27853, P. aeruginosa 4877, P. aeruginosa 23155, K. pneumoniae ATCC 10031 and K. pneumoniae 4299) were prepared by suspending the overnight cultured bacteria in saline and adjusting the inoculum to ~10^8 colony forming units (CFU) per ml. A further 150-fold dilution was then prepared in MHB to achieve a final cell density of 10^5–10^6 CFU/ml. In each well, 100 μl of inoculum was mixed with the equal volume of peptides at their 2× concentration. Positive and negative controls contained 200 μl of inoculum (without any peptide) and broth alone (no peptide/inoculum) respectively. Another negative control in which MHB containing 200 μl of peptide alone in its highest concentration tested (50 μg/ml) was also included to ensure that the optical density measured in the test wells was not due to turbidity of the peptides in solution. The 96 well polystyrene plates were then incubated at 37 °C for 24 h and the optical density at 600 nm (OD600) was measured every 30 min continuously using a TECAN microplate reader (TECAN Infinite 200, Austria). All the experiments were performed in two independent duplicates and the MIC was determined as the lowest peptide concentration in which no visible growth was observed.

[3] = tested on: K. pneumoniae ATCC10031; assay type: cell-based; details: ATCC10031, 24 h
Description: as §1

[4] = tested on: P. aeruginosa 23155; assay type: cell-based; details: 23155, 24 h
Description: as §1

[5] = tested on: K. pneumonia 4299; experiment: microbe, parasite or virus in culture; assay type: cell-based, K. pneumoniae; details: 24 h
Description: as §1

[6] = tested on: P. aeruginosa ATCC 27853; assay type: cell-based; details: ATCC 27853; for Fractional inhibitory concentration of peptide/PMB, combination with Genta: first number in parenthesis; for Fractional inhibitory concentration of antibiotic, Genta combination: second number in parenthesis
Description: (§2) The synergism between peptides with conventional antibiotics was evaluated using checkerboard assays. For a comparison polymyxin B (PMB) was also tested against each antibiotic. From their stock solutions, two-fold dilutions of each antibiotic and peptide to 1× MIC were prepared in MHB. 50 μl of each peptide concentration was added into the wells of a 96-well polystyrene plates (SPL Life Sciences Co. Ltd, Korea) in a horizontal orientation and the same volume of each antibiotic concentration were then added in a vertical orientation. Bacterial suspensions were prepared in MHB to yield final cell density of ~10^6 CFU/ml and 100 μl of bacterial suspension was mixed with each peptide-antibiotic combinations. This procedure was repeated for wells containing 200 μl of peptide alone and 200 μl of antibiotic alone in various concentrations. The positive and negative controls contained 200 μl of inoculum and MHB alone respectively. The plates were incubated at 37 °C for 24 hours and the optical density at 600 nm (OD600) was monitored as before. Fractional inhibitory concentration index (FICI) for all antibiotic- peptide combinations was calculated through the summation of (MIC of peptide in the combination/ MIC of peptide alone) and (MIC of antibiotics in combination/MIC of antibiotic alone). The experiments were performed in two independent duplicates and the combinations that gave the lowest FICI values was reported.

[7] = tested on: P. aeruginosa DR4877/07; assay type: cell-based; details: for Fractional inhibitory concentration of peptide/PMB, combination with Chloarm / Fractional inhibitory concentration of peptide/PMB, combination with Erythro / Fractional inhibitory concentration of peptide/PMB, combination with Levo / Fractional inhibitory concentration of peptide/PMB, combination with Tobra: first number in parenthesis; for Fractional inhibitory concentration of antibiotic, Chloarm combination / Fractional inhibitory concentration of antibiotic, Erythro combination / Fractional inhibitory concentration of antibiotic, Levo combination / Fractional inhibitory concentration of antibiotic, Tobra combination: second number in parenthesis
Description: as §2

[8] = tested on: P. aeruginosa ATCC 9027; experiment: Outer membrane permeability assay (NPN); assay type: cell-based; details: no unit in table; Fig. S5 axis [Peptide], μM; 10 μM NPN, 5 mM HEPES pH 7.4, ex 355/em 405 nm; average of two titrations; read-out: PC50 (peptide concentration for half-maximal NPN intensity, OM permeability)
Description: The ability of each peptide to permeabilize the OM of Gram-negative organisms was determined using the hydrophobic fluorescent probe 1-N-phenylnaphthylamine (NPN) as previously reported. P. aeruginosa ATCC 9027 cells from an overnight MHB culture were harvested after centrifuging at 3000 rpm for 10 minutes. The pellet was washed twice, suspended in 5 mM HEPES (N- 2-hydroxyethylpiperazine-N’-2 ethanesulfonic acid) buffer (pH 7.4) and adjusted to an OD600 of 0.200. A suspension containing 600 μl of bacteria cells and 1 μl of a concentrated stock solution of NPN was mixed into a 10 mm stirred quartz cuvette so that the final concentration of the probe remained 10 μM. Aliquots containing 1 μl of each peptide in various concentrations (100, 50, 25, 15, 10, 5, 2.5 and 1 μg/ml) were added upon NPN dye stabilization. The fluorescence intensity was monitored using a Quanta Master spectrophotometer with a constant slit width of 0.5 nm, excitation and emission wavelengths set at 355 nm and 405 nm respectively. The peptide concentration required for half-maximal intensity (PC50) was determined by sigmoidal curve fitting using Graphpad Prism software. The experimental data is average of two independent titration experiments.

Row | SMILES | EC50 [1] | Minimum Inhibitory Concentration against P. aeruginosa ATCC 27853 [2] | Minimum Inhibitory Concentration against K. pneumoniae ATCC10031 [3] | Minimum Inhibitory Concentration against P. aeruginosa 23155 [4] | Minimum Inhibitory Concentration against K. pneumonia 4299 [5] | Fractional inhibitory concentration of peptide/PMB, combination with Genta [6] | Fractional inhibitory concentration of antibiotic, Genta combination [6] | Fractional inhibitory concentration of peptide/PMB, combination with Chloarm [7] | Fractional inhibitory concentration of peptide/PMB, combination with Erythro [7] | Fractional inhibitory concentration of peptide/PMB, combination with Levo [7] | Fractional inhibitory concentration of peptide/PMB, combination with Tobra [7] | Fractional inhibitory concentration of antibiotic, Chloarm combination [7] | Fractional inhibitory concentration of antibiotic, Erythro combination [7] | Fractional inhibitory concentration of antibiotic, Levo combination [7] | Fractional inhibitory concentration of antibiotic, Tobra combination [7] | EC50 [8]
1 | N=C(N)NCCC[C@H](NC(=O)CNC(=O)[C@@H](N)CCCNC(=N)N)C(=O)N[C@@H](CCCCN)C(=O)N[C@@H](Cc1ccc(-c2ccccc2)cc1)C(=O)N[C@@H](Cc1ccc(-c2ccccc2)cc1)C(=O)N[C@@H](CCCNC(=N)N)C(=O)N[C@@H](CCCNC(=N)N)C(=O)NCCCC[C@H](NC(=O)[C@H](CCCNC(=N)N)NC(=O)[C@H](CCCNC(=N)N)NC(=O)[C@H](Cc1ccc(-c2ccccc2)cc1)NC(=O)[C@H](Cc1ccc(-c2ccccc2)cc1)NC(=O)[C@H](CCCCN)NC(=O)[C@H](CCCNC(=N)N)NC(=O)CNC(=O)[C@@H](N)CCCNC(=N)N)C(=O)N[C@@H](CCCCN)C(=O)O [(RGRKFbiFbiRR)2KK] (I: H-RGRK[Bip][Bip]RRKK-OH / II: H-RGRK[Bip][Bip]RR; amide I:9-II:C; N-terminus and C-terminus assumed) | 2.33 ± 0.06 µM | 9.8 µM | 9.8 µM | 4.9 µM | 19.6 µM | 0.5 | 0.06 | 0.5 | (0.5,0.5) | (0.5,0.5) | (0.25,0.25) | 0.06 | (0.5,0.5) | (0.5,0.5) | (0.25,0.25) | 22.2 ± 1.6 µM
2 | N=C(N)NCCC[C@H](NC(=O)CNC(=O)[C@@H](N)CCCNC(=N)N)C(=O)N[C@@H](CCCCN)C(=O)N[C@@H](Cc1ccccc1)C(=O)N[C@@H](Cc1ccccc1)C(=O)N[C@@H](CCCNC(=N)N)C(=O)N[C@@H](CCCNC(=N)N)C(=O)NCCCC[C@H](NC(=O)[C@H](CCCNC(=N)N)NC(=O)[C@H](CCCNC(=N)N)NC(=O)[C@H](Cc1ccccc1)NC(=O)[C@H](Cc1ccccc1)NC(=O)[C@H](CCCCN)NC(=O)[C@H](CCCNC(=N)N)NC(=O)CNC(=O)[C@@H](N)CCCNC(=N)N)C(=O)N[C@@H](CCCCN)C(=O)O (I: H-RGRKFFRRKK-OH / II: H-RGRKFFRR; amide I:9-II:C; N-terminus and C-terminus assumed) | 0.93 ± 0.01 µM | 5.0 µM | 5.0 µM | 5.0 µM | 10.1 µM | (0.25,0.25) | (0.25,0.25) | 0.25 | (0.5,0.5) | (0.5,0.5) | 0.25 | 0.13 | (0.5,0.5) | (0.5,0.5) | 0.06 | 10 ± 0.3 µM
3 | N=C(N)NCCC[C@H](NC(=O)CNC(=O)[C@@H](N)CCCNC(=N)N)C(=O)N[C@@H](CCCCN)C(=O)N[C@@H](Cc1ccc(O)cc1)C(=O)N[C@@H](Cc1ccc(O)cc1)C(=O)N[C@@H](CCCNC(=N)N)C(=O)N[C@@H](CCCNC(=N)N)C(=O)NCCCC[C@H](NC(=O)[C@H](CCCNC(=N)N)NC(=O)[C@H](CCCNC(=N)N)NC(=O)[C@H](Cc1ccc(O)cc1)NC(=O)[C@H](Cc1ccc(O)cc1)NC(=O)[C@H](CCCCN)NC(=O)[C@H](CCCNC(=N)N)NC(=O)CNC(=O)[C@@H](N)CCCNC(=N)N)C(=O)N[C@@H](CCCCN)C(=O)O (I: H-RGRKYYRRKK-OH / II: H-RGRKYYRR; amide I:9-II:C; N-terminus and C-terminus assumed) | 2.5 ± 0.04 µM | 4.5 µM | 4.5 µM | 4.5 µM | 9.0 µM | (0.25,0.25) | (0.25,0.25) | 0.25 | 0.5 | 0.5 | 0.25 | 0.13 | 0.06 | 0.25 | 0.13 | 21.9 ± 0.2 µM
